Our source for the T/C values is PubChem BioAssay AID328 (DTP/NCI, 2004).

In this experiment the test system is BDF1 mice, P388 leukemia ip, median survival T/C. The experiment can be described thus: NCI In Vivo Anticancer Drug Screen. Data for tumor model P388 Leukemia (intraperitoneal) in B6D2F1 (BDF1) mice. Conditions: endpoint: median survival time, higher = longer survival. An outline of the steps:
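Antitumour effect was judged in vivo: survival in drug-treated mice, normalised to that of vehicle-dosed controls, gives the reported T/C.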

Where [1] appears, read: dose: 25.0 mg/kg/injection, schedule: Q01DX009 (ip), vehicle: water.
[2] abbreviates: dose: 50.0 mg/kg/injection, schedule: Q01DX009 (ip), vehicle: water.
The mark [3] stands for this setting: dose: 50.0 mg/kg/injection, schedule: Q04DX003 (ip), vehicle: water.
[4] abbreviates: dose: 100.0 mg/kg/injection, schedule: Q04DX003 (ip), vehicle: water.
The mark [5] stands for this setting: dose: 200.0 mg/kg/injection, schedule: Q04DX003 (ip), vehicle: water.
The mark [6] stands for this setting: dose: 50.0 mg/kg/injection, schedule: Q01DX009 (ip), vehicle: saline with Tween-80.
The mark [7] stands for this setting: dose: 100.0 mg/kg/injection, schedule: Q01DX009 (ip), vehicle: saline with Tween-80.
[8] abbreviates: dose: 200.0 mg/kg/injection, schedule: Q01DX009 (ip), vehicle: saline with Tween-80.
The mark [9] stands for this setting: dose: 100.0 mg/kg/injection, schedule: Q04DX003 (ip), vehicle: Klucel (hydroxypropylcellulose) (HPC).
[10] abbreviates: dose: 200.0 mg/kg/injection, schedule: Q04DX003 (ip), vehicle: Klucel (hydroxypropylcellulose) (HPC).
The mark [11] stands for this setting: dose: 400.0 mg/kg/injection, schedule: Q04DX003 (ip), vehicle: Klucel (hydroxypropylcellulose) (HPC).
The mark [12] stands for this setting: dose: 25.0 mg/kg/injection, schedule: Q01DX009 (ip), vehicle: saline with Tween-80.
Where [13] appears, read: dose: 6.25 mg/kg/injection, schedule: Q01DX009 (ip), vehicle: saline with Tween-80.
Where [14] appears, read: dose: 50.0 mg/kg/injection, schedule: Q01DX009 (ip), vehicle: saline.
Setting [15] is: dose: 100.0 mg/kg/injection, schedule: Q01DX009 (ip), vehicle: saline.
Setting [16] is: dose: 12.5 mg/kg/injection, schedule: Q01DX009 (ip), vehicle: saline with Tween-80.

Where “and” joins values, the source holds several entries; their conditions need not be identical. Equal entries are not always repeated. Toxic doses and inconclusive results are not listed.

On to `NC(=O)c1nc(C(F)(F)F)[nH]c1C(N)=O`, for which the T/C was 107 % of control under setting [1]; 105 % of control and 107 % of control under setting [2]; 102 % of control under setting [3]; 108 % of control and 118 % of control (dose: 100.0 mg/kg/injection, schedule: Q01DX009 (ip), vehicle: water); 102 % of control under setting [4]; 107 % of control and 118 % of control (dose: 200.0 mg/kg/injection, schedule: Q01DX009 (ip), vehicle: water). In addition, the T/C was 109 % of control under setting [5]; 96 % of control (dose: 300.0 mg/kg/injection, schedule: Q01DX009 (ip), vehicle: water); 118 % of control (dose: 400.0 mg/kg/injection, schedule: Q01DX009 (ip), vehicle: water); 102 % of control (dose: 400.0 mg/kg/injection, schedule: Q04DX003 (ip), vehicle: water).
As to `COc1cc2c(cc1OC)C(CNC(=O)/C=C/c1cc(OC)c(OC)c(OC)c1)C2` (stereo not given), the T/C under setting [6] is 98 % of control, the T/C under setting [7] is 107 % of control and the T/C under setting [8] was 88 % of control.
For the compound `CCOC(=O)C(C#N)(CC)C1=CCCCC1` (stereo not given), the T/C was 108 % of control (dose: 100.0 mg/kg/injection, schedule: Q01DX009 (ip), vehicle: Klucel (hydroxypropylcellulose) (HPC)); 109 % of control under setting [9]; 100 % of control (dose: 200.0 mg/kg/injection, schedule: Q01DX009 (ip), vehicle: Klucel (hydroxypropylcellulose) (HPC)); 100 % of control under setting [10]; 104 % of control (dose: 400.0 mg/kg/injection, schedule: Q01DX009 (ip), vehicle: Klucel (hydroxypropylcellulose) (HPC)); 122 % of control under setting [11].
Consider `S=P(NCCS)(N1CC1)N1CC1`, for which the T/C by setting is: under setting [12], 95 % of control; under setting [6], 122 % of control; under setting [7], 109 % of control.
For `COC12C(COC(=O)NCCO)C3=C(C(=O)C(C)=C(N)C3=O)N1CC1NC12` (stereo not given), the T/C is, setting by setting: (dose: 6.25 mg/kg/injection, schedule: Q01DX009 (ip), vehicle: saline) 209 % of control; (dose: 12.5 mg/kg/injection, schedule: Q01DX009 (ip), vehicle: saline) 228 % of control and 230 % of control; (dose: 25.0 mg/kg/injection, schedule: Q01DX009 (ip), vehicle: saline) 231 % of control and 254 % of control.
`c1ccc(-c2c[se]nn2)cc1`: the T/C was 102 % of control (dose: 1.56 mg/kg/injection, schedule: Q01DX009 (ip), vehicle: saline + alcohol); 100 % of control (dose: 3.13 mg/kg/injection, schedule: Q01DX009 (ip), vehicle: saline + alcohol); 89 % of control (dose: 6.25 mg/kg/injection, schedule: Q01DX009 (ip), vehicle: saline + alcohol); 86 % of control under setting [13].
On to `OCC12COCN1COC2`, for which the T/C runs as follows: under setting [14], 104 % of control; under setting [15], 104 % of control.
Turning to `CCOCc1cc([N+](=O)[O-])cc([N+](=O)[O-])c1O`, the T/C under setting [16] is 109 % of control and the T/C under setting [12] was 113 % of control.
`CC(=O)Nc1ccc(Cl)cc1C(=O)O`: the T/C under setting [9] was 91 % of control, the T/C under setting [10] was 95 % of control and the T/C under setting [11] was 100 % of control.
For `Cc1cc(C)n(-c2nn3nnnc3c3ccccc23)n1`, the T/C is 95 % of control under setting [14]; 95 % of control under setting [15]; 93 % of control (dose: 200.0 mg/kg/injection, schedule: Q01DX009 (ip), vehicle: saline).
For `O=c1[nH]cnc2[nH]ccc12`, the T/C by setting is: under setting [13], 99 % of control; under setting [16], 103 % of control; under setting [12], 96 % of control; under setting [6], 99 % of control.
As for `O=C/C=C/c1ccc([N+](=O)[O-])cc1`, the T/C runs as follows: under setting [12], 104 % of control; under setting [6], 108 % of control; under setting [7], 91 % of control.
In the case of `O=C(O)c1occ(Cl)c1Cl`, the T/C is, setting by setting: (dose: 0.78 mg/kg/injection, schedule: Q01DX009 (ip), vehicle: water) 100 % of control; (dose: 1.56 mg/kg/injection, schedule: Q01DX009 (ip), vehicle: water) 98 % of control; (dose: 3.12 mg/kg/injection, schedule: Q01DX009 (ip), vehicle: water) 97 % of control; (dose: 6.25 mg/kg/injection, schedule: Q01DX009 (ip), vehicle: water) 97 % of control; (dose: 12.5 mg/kg/injection, schedule: Q01DX009 (ip), vehicle: water) 94 % of control; under setting [1], 94 % of control. Moreover, the T/C is 106 % of control under setting [2], 96 % of control under setting [3], 104 % of control under setting [4] and 119 % of control under setting [5].
Turning to `O=C1OC2CCC3C1C3C2Br` (stereo not given), the T/C is 95 % of control (dose: 2.32 mg/kg/injection, schedule: Q04DX003 (ip), vehicle: Klucel (hydroxypropylcellulose) (HPC)); 95 % of control (dose: 4.65 mg/kg/injection, schedule: Q04DX003 (ip), vehicle: Klucel (hydroxypropylcellulose) (HPC)); 95 % of control (dose: 9.3 mg/kg/injection, schedule: Q04DX003 (ip), vehicle: Klucel (hydroxypropylcellulose) (HPC)); 115 % of control (dose: 13.0 mg/kg/injection, schedule: Q04DX003 (ip), vehicle: Klucel (hydroxypropylcellulose) (HPC)); 115 % of control (dose: 21.0 mg/kg/injection, schedule: Q04DX003 (ip), vehicle: Klucel (hydroxypropylcellulose) (HPC)); 120 % of control (dose: 30.0 mg/kg/injection, schedule: Q04DX003 (ip), vehicle: Klucel (hydroxypropylcellulose) (HPC)). Also, the T/C (dose: 45.0 mg/kg/injection, schedule: Q04DX003 (ip), vehicle: Klucel (hydroxypropylcellulose) (HPC)) is 109 % of control and the T/C (dose: 70.0 mg/kg/injection, schedule: Q04DX003 (ip), vehicle: Klucel (hydroxypropylcellulose) (HPC)) is 95 % of control.
For the compound `COc1ccc(-n2c(=O)c(N=Nc3ccccc3OC)c(O)n(-c3ccccc3C)c2=S)cc1`, the T/C is 111 % of control (dose: 100.0 mg/kg/injection, schedule: Q01DX001 (ip), vehicle: Klucel (hydroxypropylcellulose) (HPC)); 100 % of control (dose: 200.0 mg/kg/injection, schedule: Q01DX001 (ip), vehicle: Klucel (hydroxypropylcellulose) (HPC)); 88 % of control (dose: 400.0 mg/kg/injection, schedule: Q01DX001 (ip), vehicle: Klucel (hydroxypropylcellulose) (HPC)).
Regarding `COCCCNC1=C(C#N)C(=O)NC2(CCCC2)S1`, the T/C was 90 % of control under setting [6], 90 % of control under setting [7] and 104 % of control under setting [8].
For the compound `COC(=O)C1c2cc3c(cc2C(OC2OC(C)C(OC)C(C)(OC)C2OC)CC1(C)O)C(=O)c1c(O)cc2c(c1C3=O)OC1OC2(C)C(O)C([N+](C)(C)[O-])C1O` (stereo not given), the T/C is 150 % of control (dose: 3.13 mg/kg/injection, schedule: Q01DX010 (ip), vehicle: saline); 165 % of control (dose: 6.25 mg/kg/injection, schedule: Q01DX010 (ip), vehicle: saline); 95 % of control (dose: 12.5 mg/kg/injection, schedule: Q01DX010 (ip), vehicle: saline).
On to `N#CC(c1ccccc1)C1CCCCC1` (stereo not given), for which the T/C by setting is: (dose: 75.0 mg/kg/injection, schedule: Q04DX003 (ip), vehicle: saline) 111 % of control; (dose: 150.0 mg/kg/injection, schedule: Q04DX003 (ip), vehicle: saline) 107 % of control; (dose: 300.0 mg/kg/injection, schedule: Q04DX003 (ip), vehicle: saline) 115 % of control.
Turning to `C=C(C)C(=O)O[C@H]1C[C@@]23O[C@@H]2CCC(=C[C@H]2OC(=O)C(=C)[C@H]12)COC3O` (stereo not given in full), the T/C is 108 % of control (dose: 9.37 mg/kg/injection, schedule: Q01DX009 (ip), vehicle: saline); 104 % of control (dose: 18.75 mg/kg/injection, schedule: Q01DX009 (ip), vehicle: saline); 113 % of control (dose: 18.75 mg/kg/injection, schedule: Q04DX003 (ip), vehicle: saline); 95 % of control (dose: 37.5 mg/kg/injection, schedule: Q04DX003 (ip), vehicle: saline).
